One data set deals with primary AML blasts. The experiment in a line: Cell viability of primary patient AML samples (bulk and CD34+CD38- primitive population). The data set is classed as cell-based, human. The settings on record: 0.1, 1 and 10 μM, 24 and 72 h. How it is done:
FIG. 3. […] The primitive AML population was identified within the AML bulk population based on their positivity to CD34 and negativity to CD38. […] Cell number was calculated by volumetric count. 11 primary AML samples were analyzed in triplicates. Each symbol represents a specific AML patient.
FIG. 4. […] The primitive AML population was identified within the AML bulk population based on their positivity to CD34 and negativity to CD38. […] Cell number was calculated by volumetric count. 11 primary AML samples were analyzed in triplicates. Each symbol represents a specific AML patient.
Primary AML patient samples were treated with subtype 1 and 2 HTR antagonists for 24 and 72 h at 0.1, 1 and 10 μM. Five hundred thousand cells per mL were seeded in IMDM supplemented with insulin, transferrin, bovine serum albumin, IL3 and non-essential aminoacids. Cell viability was measured by flow cytometry as described above.
Like the normal haematopoietic system, AML is thought to be organized as a hierarchy of distinct and functionally heterogeneous classes of cells that is ultimately sustained by a small number of leukaemic stem cells (LSCs) with enhanced self-renewal capacity, impaired differentiation ability, and increase drug resistance (Bonnet and Dick Nat Med. 1997; 3(7):730-7). The LSC population is found enriched inside the CD34+CD38− AML blast population.

Data set [1] has as its system healthy hematopoietic stem cells. The experiment in a line: Secondary transplants of engrafted healthy cells in NSG mice. The data set is classed as in vivo, mouse. The procedure:
(§1) FIG. 17. Treatments with 5HTR antagonists reduce the leukemia regeneration capacity of primary AML samples in secondary recipient, without affecting normal hematopoiesis. Upper panel. 3-10×10^5 engrafted bone marrow cells from primary transplanted mice were injected intravenously into secondary recipients (conditioned NSG mice) and left untreated for 8 weeks. Bone marrow cells were analyzed as in FIG. 16. Frequency of human CD45 positive cells referred to control is represented. Lower panel. 50×10^3 engrafted human cells were screened for CFUs. The normalized number of CFUs obtained is represented. *p<0.05; ***p<0.005; ****p<0.0001.
(§2) In order to assay the in vivo self-renewal capacity remaining in the engrafted samples, secondary transplants were performed. Less than 35% of AML cells were detected in mice injected with apomorphine- or methiothepin-treated cells (FIG. 17).

In data set [2] the test system is lineage-depleted UCB cells. The data set is described as follows: Engraftment of ex vivo treated lineage-depleted UCB cells in NSG mice. Also on record: species or system mouse. Particulars: ex vivo 10 μM for 18 h; 8 weeks after transplantation. How it is done:
(§3) FIG. 16. 5HTR antagonist treatment reduces the leukemia regeneration capacity of primary AML cells, whilst sparing healthy hematopoietic stem/progenitor cells. 1-10×10^6 primary AML patient cells or 10-14×10^4 lineage-depleted CB cells were ex vivo treated (10 μM apomorphine, 10 μM methiothepin or vehicle control) for 18 h in IMDM supplemented with 5% heat-inactivated fetal bovine serum and hematopoietic cytokines. Cells were injected IV in previously busulfan (30 mg/kg)-conditioned NSG mice and left 8 weeks untreated. Mice were sacrificed and their bones (iliac crests, femurs and tibias) were harvested and analyzed for the presence of human leukemia (upper panel) or healthy blood (lower panel) cells by flow cytometry. Four AML patient samples and three umbilical cord blood (UCB) samples were tested. *p<0.05; **p<0.01.
(§4) Leukemia-initiating cells (LIC) or LSCs are responsible for the engraftment of AML cells in xenograft mouse models and are thought to initiate and maintain the disease in humans. Primary AML patient samples were treated ex vivo with 5HTR antagonists for 18 h and transplanted into conditioned immunodeficient NSG mice. Eight weeks after transplantation, murine bone marrow was analyzed for the presence of human AML cells.

A further data set concerns engrafted healthy HSCs. The experiment in a line: CFU assay of engrafted healthy HSCs. The class given is cell-based. The settings on record: engrafted human cells from primary transplanted mice. The procedure: as §1, §2
The test system of data set [3] is HL-60, KG-1, MonoMac-1 and Kasumi-1 AML cell lines. The experiment in a line: Differentiation-associated surface markers on AML cell lines by flow cytometry. The data set is classed as cell-based, human. Particulars: 0.1, 1 and 10 μM, 72 h; all AML cell lines. The procedure: FIG. 5. […] The surface expression of CD11c, CD11b and CD14 was detected by flow cytometry. […] MFI: Mean Fluorescence Intensity.
HL-60, KG-1, MonoMac-1 and Kasumi-1 AML cell lines were treated with Apomorphine and Methiothepin at different concentrations for 72 h as described above. The expression of differentiation-associated surface markers was measured by flow cytometry.

The test system of data set [4] is healthy haematopoietic stem/progenitor cells. The data set is described as follows: Clonogenic capacity of lineage-depleted umbilical cord blood cells. Particulars: 10 μM for 18 h, then 14 days in methylcellulose. The data set is classed as cell-based, human. How it is done: FIG. 11. […] Cells were then cultivated in Methylcellulose supplemented with haematopoietic cytokines for 14 days. The number of colonies obtained was measured by microscopy based on morphological criteria. A. Total number of colonies is represented. CFU: colony-forming units. B. Frequency of each colony subtype is shown (CFU-Mix, Mix lineaged colony; CFU-GM, granulo-monocyte colony; CFU-G, granulocyte colony; CFU-M, monocyte colony; BFU-E erythrocyte blast colony). 4 primary umbilical cord blood samples were analyzed.
Next, lineage-depleted umbilical cord blood cells were treated with Apomorphine or Methiothepin as done above for AML cells. 14 days after plating, colonies were counted by light microscopy based on morphology and cellularity.

Data set [5] relates to primary AML patient cells. The data set is described as follows: Engraftment of ex vivo treated primary AML cells in NSG mice. On the set-up: species or system mouse. Particulars: ex vivo 10 μM for 18 h; bone marrow 8 weeks after transplantation; versus vehicle. How it is done:
as §3, §4

Another data set relates to healthy blood cells. Particulars: 0.1, 1 and 10 μM, 24 h or 72 h; healthy donor peripheral blood.
Data set [6] has as its system primary haematopoietic stem/progenitor cells. The data set is described as follows: Viability of lineage-negative umbilical cord blood cells. Particulars: 10 μM, 24 h.
In a further data set the test system is primary AML samples. The experiment in a line: Clonogenic capacity (CFU-B) of primary AML samples in methylcellulose. The data set is classed as cell-based, human. Particulars: 10 μM for 18 h, then 14 days in methylcellulose. How it is done: FIG. 10. The clonogenic capacity of primary AML samples is reduced upon 5HTR antagonist treatment. […] Cells were then cultivated in Methylcellulose supplemented with hematopoietic cytokines for 14 days. The number of CFU-B obtained was measured by microscopy based on morphological criteria. 7 primary AML blood samples were analyzed. Each symbol represents a specific patient sample. Lines represent the median. *p<0.05. CFU-B: Blast colony-forming units.
Taking into account that 5HTR antagonists reduced the cell viability of the most primitive AML population, the clonogenic capacity upon treatment was investigated. Primary patient AML samples were cultured in the presence of Apomorphine and Methiothepin for 18 h and plated in a semi-solid methylcellulose media for 14 days in the presence of instructive cytokines at a concentration of fifty thousand cells per mL. Colonies were counted by light microscopy based on morphology and cellularity.

Data set [7] concerns primary CFU-Bs from AML patients. The experiment in a line: Secondary CFU replating of pretreated primary AML CFU-Bs. The class given is cell-based, human. Particulars: primary CFUs pretreated with 10 μM, replated 14 days without drug.

With `CN1CCc2cccc3c2[C@H]1Cc1ccc(O)c(O)c1-3` [Apomorphine, (6aR)-6-methyl-5,6,6a,7-tetrahydro-4H-dibenzo[de,g]quinoline-10,11-diol], in the data set with primary AML blasts (bulk population), the “cell death on primary AML blasts” value is “induced cell death on primary AML blasts in a dose-response fashion”. In addition, in the data set with primary AML blasts (CD34+CD38- population), the “cell viability of the most primitive LSC-enriched blast population” value is reported as “reduced cell viability”. The “self-renewal and differentiation capacity of healthy hematopoietic stem cells in secondary transplants” value in data set [1] was “retained their self-renewal and differentiation capacity”. Moreover, the “normal hematopoietic regeneration capacity of lineage-depleted UCB cells” value in [2] was “negligible effect”. In addition, the “clonogenic capacity of engrafted healthy HSCs (CFU assays)” value with engrafted healthy HSCs is reported as “little effect”. Besides, in data set [3], the “expression of differentiation-associated surface markers CD11c, CD11b and CD14” value is “induced the expression of CD11c, CD11b and CD14”. Also, in data set [4], the “clonogenic capacity of healthy haematopoietic stem/progenitor cells (total colonies, frequency of CFU subtypes)” value is “None of the 5HTR antagonists affected the clonogenic capacity”. In addition, in data set [5], the “homing and engraftment capacity of treated AML cells” value was “less homing and engraftment capacity”. Further, in the data set with healthy blood cells, the “healthy blood cell viability” value is recorded as “remains unaffected”. Moreover, in [6], the “viability of healthy haematopoietic stem/progenitor cells” value is “remain unaffected”. Also, in the data set on primary AML samples, the “clonogenic capacity of primary AML samples (number of CFU-B)” value is listed as “reduced the clonogenic capacity”. The “clonogenic capacity in secondary CFUs” value in [7] was “a reduction in the clonogenic capacity was observed”.

Source of the values: patent US11337984B2, “Methods for treating, diagnosing and prognosing a haematological malignancy” (Institut de Recerca Contra La Leucèmia Josep Carreras, priority 2014, dated 2022).
